Measurements taken from patent US11535627B2, “Pyrimidine derivative compound, pharmaceutically acceptable salt thereof, preparation process thereof, and pharmaceutical composition using the same” (Spark Biopharma, Inc., priority 2016, dated 2022).
“Also recorded” adds a separate entry of the source.

Tests used:
[1] = target: LRS-RagD interaction (Homo sapiens, UniProt Q9P2J5); assay: ELISA of LRS-RagD interaction; type: binding
Protocol: His-tagged human LRS proteins were diluted in carbonate buffer (100 mM, pH 9.6) to the concentration of 0.5 ng μl^−1. […] Protein from each well was removed and washed three times with PBS mixed with 0.05% Tweed® 20 (PBST), subjected to blocking with PBS containing 5% bovine serum albumin (BSA) for 2 hours. Each well was washed with PBST, followed by the treatment of a compound and GST-tagged human RagD protein simultaneously for 3 hours. GST protein itself was used as a negative control. Each well was treated with GST antibody diluted in PBST and incubated at room temperature for 1 h. After washing with PBST, the HRP-conjugated anti-horse IgG secondary antibody was incubated at room temperature for 1 h. TMB was added to each well for colorimetric development. […] To stop the chemical reaction, the treatment with 1 m H3PO4 was done. Finally, absorbance at 450 nm were measured.

[2] = test system: mTORC1; assay: Western blotting, mTORC1 signalling pathway in HEK293T cells; type: cell-based; settings: for amount of phospho-T389 S6K1 / phosphorylation suppression of S6K1 by western blotting: 20 μM; for phosphorylation suppression of S6K1 by western blotting: phospho-T389 S6K1 relative to DMSO
Protocol: HEK293T cell was cultured in Dulbecco modified eagle medium (DMEM) with 10% (v/v) fetal bovine serum (FBS) and 1% (v/v) antibiotic-antimycotic solution. […] The cells were cultured in 100-mm culture dish in an incubator at 37° C., in 5% CO2.
Cells were lysed with Radio-ImmunoPrecipitation Assay (RIPA) buffer (50 mM Tris, pH 7.8, 150 mM NaCl, 0.5% deoxycholate, 1% IGEPAL CA-630, protease inhibitor cocktail, and phosphatase inhibitors). Protein was obtained by transferring supernatant after centrifugation at 15000 rpm for 20 min. Protein concentration was measured with Micro BCA™ protein assay kit. Overall protein sampling procedure was done at 4° C. Prepared protein samples were analyzed with SDS-PAGE. Protein after electrophoresis was transferred into nitrocellulose membrane. Membrane was blocked with TBST mixed with 2% BSA over at least 1 h at r.t. Primary antibodies were incubated overnight at 4° C. […] After washing with TBST, HRP-labeled anti-rabbit IgG secondary antibody was treated at room temperature for 1 h. After washing with TBST, developing by Amersham ECL prime solution was done. Chemiluminescent signal was imaged by ChemiDoc™ MP imaging system.

[3] = test system: AMPK signaling pathways; assay: Western blotting, phospho-T172 AMPKα in HEK293T cells; type: cell-based
Protocol: (§1) HEK293T cell was cultured in Dulbecco modified eagle medium (DMEM) with 10% (v/v) fetal bovine serum (FBS) and 1% (v/v) antibiotic-antimycotic solution. HeLa, DU145, and Ca Ski cells were cultured in RPMI 1640 medium with 10% (v/v) FBS and 1% (v/v) antibiotic-antimycotic solution. The cells were cultured in 100-mm culture dish in an incubator at 37° C., in 5% CO2.
(§2) Cells were lysed with Radio-ImmunoPrecipitation Assay (RIPA) buffer (50 mM Tris, pH 7.8, 150 mM NaCl, 0.5% deoxycholate, 1% IGEPAL CA-630, protease inhibitor cocktail, and phosphatase inhibitors). Protein was obtained by transferring supernatant after centrifugation at 15000 rpm for 20 min. Protein concentration was measured with Micro BCA™ protein assay kit. Overall protein sampling procedure was done at 4° C. Prepared protein samples were analyzed with SDS-PAGE. Protein after electrophoresis was transferred into nitrocellulose membrane. Membrane was blocked with TBST mixed with 2% BSA over at least 1 h at r.t. Primary antibodies were incubated overnight at 4° C. […]

[4] = test system: mTORC2 signaling pathways; assay: Western blotting, phospho-S473 Akt in HEK293T cells; type: cell-based
Protocol: as §1, §2

[5] = target: T1, Human LRS proteins (Homo sapiens, UniProt Q9P2J5); assay: Surface plasmon resonance (SPR) binding to LRS
T1 construct: His
T1 sequence (Q9P2J5 whole entry): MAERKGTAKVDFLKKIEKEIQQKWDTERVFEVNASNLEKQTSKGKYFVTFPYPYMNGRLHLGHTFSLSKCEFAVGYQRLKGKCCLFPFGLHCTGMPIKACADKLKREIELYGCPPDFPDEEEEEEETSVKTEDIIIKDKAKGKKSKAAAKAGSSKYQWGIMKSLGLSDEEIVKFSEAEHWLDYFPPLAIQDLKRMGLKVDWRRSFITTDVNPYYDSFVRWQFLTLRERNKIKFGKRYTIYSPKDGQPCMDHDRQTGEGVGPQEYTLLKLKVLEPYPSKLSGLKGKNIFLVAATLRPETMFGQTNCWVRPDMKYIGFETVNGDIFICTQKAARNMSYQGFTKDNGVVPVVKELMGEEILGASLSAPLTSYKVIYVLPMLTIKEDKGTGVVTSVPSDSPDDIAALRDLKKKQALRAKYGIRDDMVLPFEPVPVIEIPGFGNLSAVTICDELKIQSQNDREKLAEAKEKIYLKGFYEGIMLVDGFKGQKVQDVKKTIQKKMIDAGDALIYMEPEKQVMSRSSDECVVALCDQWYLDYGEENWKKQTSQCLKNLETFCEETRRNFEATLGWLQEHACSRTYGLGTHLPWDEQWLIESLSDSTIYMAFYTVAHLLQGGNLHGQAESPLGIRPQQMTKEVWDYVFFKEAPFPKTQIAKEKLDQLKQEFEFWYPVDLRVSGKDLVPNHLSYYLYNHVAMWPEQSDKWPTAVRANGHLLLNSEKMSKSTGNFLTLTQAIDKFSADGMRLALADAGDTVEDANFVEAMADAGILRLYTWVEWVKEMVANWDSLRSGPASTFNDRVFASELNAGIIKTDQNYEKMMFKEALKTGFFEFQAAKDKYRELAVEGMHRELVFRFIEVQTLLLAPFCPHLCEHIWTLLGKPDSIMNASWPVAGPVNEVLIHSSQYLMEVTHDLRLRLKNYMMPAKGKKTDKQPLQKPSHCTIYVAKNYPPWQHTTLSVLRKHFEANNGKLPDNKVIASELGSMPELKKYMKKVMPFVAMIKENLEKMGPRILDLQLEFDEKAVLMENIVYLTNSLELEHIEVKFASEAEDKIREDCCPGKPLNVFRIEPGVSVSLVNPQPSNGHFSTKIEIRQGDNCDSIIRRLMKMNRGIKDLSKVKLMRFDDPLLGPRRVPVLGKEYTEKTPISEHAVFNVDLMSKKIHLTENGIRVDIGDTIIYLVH
Protocol: The dissociation […] constant (KD) toward His-LRS proteins was determined by using SPR instrument (Biacore T100) at the national center for inter-university research facilities (NCIRF) in Seoul National University. The carboxyl group on the surface of CMS chip was able to be replaced with protein by forming reactive succinimide ester with 1-ethyl-3-(3-dimethylaminopropyl)-carbodiimide (EDC) and N-hydroxysuccinimide (NHS). Human LRS proteins (1.5×PBS, pH 7.3) were immobilized on flow cell 2 (imed RU; 12000) by leading to amide bond formation with NHS ester. The residual NHS ester was quenched with 1 M ethanolamine-HCl (pH 8.0). Amide bond formation alone, without any protein t, was performed on flow cell 1 as a control. The immobilization process was proceeded on PBS buffer. After the immobilization of hLRS, compounds were flowed for 60 s at a flow rate of 20 μl min^−1 in various concentrations from 1 μM to […] was then flowed at the same flow rate for 200 s for dissociation of compounds. As a running buffer, 1×PBS (pH 7.3) containing 3% DMSO and 0.005% P2O was used. The experiment was performed at 25° C. Data analysis was done by using Biacore T100 Evaluation software. […] The dissociation constant (KD) was calculated by fitting to the 1:1 binding model.

[6] = test system: HeLa human cervical cancer cells; assay: Western blot analysis of LC3 and p62 (autophagy) in HeLa cells; type: cell-based; settings: for LC3 I/LC3 II ratio / p62 level: 6 h, 200 nM Rap, 10 nM Baf, 20 μM 21f, compared with DMSO
Protocol: as §1
Cells were lysed with Radio-ImmunoPrecipitation Assay (RIPA) buffer (50 mM Tris, pH 7.8, 150 mM NaCl, 0.5% deoxycholate, 1% IGEPAL CA-630, protease inhibitor cocktail, and phosphatase inhibitors). Protein was obtained by transferring supernatant after centrifugation at 15000 rpm for 20 min. Protein concentration was measured with Micro BCA™ protein assay kit. Overall protein sampling procedure was done at 4° C. Prepared protein samples were analyzed with SDS-PAGE. Protein after electrophoresis was transferred into nitrocellulose membrane. Membrane was blocked with TBST mixed with 2% BSA over at least 1 h at r.t. Primary antibodies were incubated overnight at 4° C. The treatment concentration was as follows: Anti-LC3B (ab51520); 1:1000, anti-S6K1 (ab32359); 1:1000, anti-phospho-T389 S6K1 (ab2571); 1:800, anti-p62 (CST 5114); 1:1000, anti-glyceraldehyde-3-phosphate dehydrogenase (GAPDH) (CST 2118); 1:1000, anti-phospho-S65 4E-BP1 (CST 9451); 1:1000, anti-phospho-S757 ULK1 (CST 6888); 1:800, anti-phospho-S473 Akt (CST 4058); 1:1000, anti-phospho-T172 AMPKα (CST 2531). After washing with TBST, HRP-labeled anti-rabbit IgG secondary antibody was treated at room temperature for 1 h. After washing with TBST, developing by Amersham ECL prime solution was done. Chemiluminescent signal was imaged by ChemiDoc™ MP imaging system.

[7] = test system: HeLa cells; assay: mCherry-GFP-LC3 puncta imaging; type: cell-based, human; settings: 6 h, 200 nM Rap, 10 nM Baf, 20 μM 21f
Protocol: HeLa cells were seeded in chambered coverglass from Nunc and incubated for 24 h. mCherry-GFP-LC3 plasmid was transfected to the cells using Lipofectamine™ 2000 solution. Transfection was proceeded according to manufacturer's protocol.
DeltaVision Elite imaging system was used for the imaging of mCherry-GFP-LC3 transfected HeLa cell. For live-cell imaging, chamber was maintained at 37° C. and in 5% CO2. […] The wavelength range of the used filters is as follows: mCherry (Excitation: 575/25 nm, Emission: 625/45 nm); GFP (Excitation: 475/28 nm, Emission: 525/48 nm). Images were processed and analyzed with SoftWorks deconvolution software.

[8] = test system: HEK293T cells; assay: Cell proliferation assay (BrdU); type: cell-based; settings: 5 μM, in the presence of Leu
Protocol: HEK293T cells were seeded in 96-well plate from CORNING. 24 h after seeding, the compound diluted with DMEM at 5 μM of final concentration was treated in cells while leucine-free DMEM was treated in cells as a control. Cell division assay was done with WSTs assay and BrdU colorimetric kit, following the manufacturer's protocol.

[9] = test system: mTORC1; assay: Western blotting, mTORC1 signalling in Ca Ski cells; type: cell-based
Protocol: as §1, §2

[10] = test system: mTORC1; assay: Western blotting, mTORC1 signalling in DU145 cells; type: cell-based
Protocol: as §1, §2

[11] = HEK293T cells, 20, 10, 5 and 1 μM, 3 h

LRS-RagD interaction, sequence (Q9P2J5 whole entry): as above

With CN(Cc1ccccc1)c1ncnc2c1CN1C[C@@H]1CN2Cc1ccccc1 (stereo partly drawn) [Compound 20f] the “dose-dependent inhibition of the LRS-RagD interaction (dose-response curves in ELISA)” value (from here on “dose-dependent inhibition”) [1] was “inhibit the LRS-RagD interaction in a dose-dependent manner”, the “reduction of LRS-RagD interaction by ELISA” value [1] was 15.5% and the “amount of phospho-T389 S6K1” value ([2]; HEK293T cells, 3 h) was “less than that of 21f”. The “phosphorylation suppression of S6K1 by western blotting” value ([2]; HEK293T cells, 3 h) was 16.4%.
In the case of Cc1cc(C)cc(CN2C[C@H]3CN3Cc3c(N(C)Cc4ccccc4)ncnc32)c1 (stereo partly drawn) [Compound 21f], the “dose-dependent inhibition” value [1] is reported as “inhibit the LRS-RagD interaction in a dose-dependent manner”, the “reduction of LRS-RagD interaction by ELISA” value [1] is reported as 30.2% and the “inhibition degree against phospho-S757 ULK1” value ([2]; HEK293T cells, 0-24 h, 21f 10 μM, rapamycin 500 nM) is reported as “high inhibition degree”. The “Phospho-T389 S6K1, time course” value ([2]; HEK293T cells, 10 μM, 0-24 h) was “reduced in cells treated with 21f as time passed”, the “duration of the effect on mTORC1 within cells” value ([2]; HEK293T cells, 10 μM, 0-24 h) was “at least 12 h” and the “phospho-S65 4E-BP1, time course” value ([2]; HEK293T cells, 10 μM, 0-24 h) was “reduced in cells treated with 21f as time passed”. The “phospho-S757 ULK1, time course” value ([2]; HEK293T cells, 10 μM, 0-24 h) was “reduced in cells treated with 21f as time passed”, the “amount of phospho-T389 S6K1” value ([2]; HEK293T cells, 3 h) was “reduced amount of phospho-T389 S6K1” and the “phosphorylation suppression of S6K1 by western blotting” value ([2]; HEK293T cells, 3 h) was 48.9%. The “Phospho-T389 S6K1” value [2, 11] was “reduced in cells treated with 21f in a dose-dependent manner”, the “phospho-S65 4E-BP1” value [2, 11] was “reduced in cells treated with 21f in a dose-dependent manner” and the “phospho-S757 ULK1” value [2, 11] was “reduced in cells treated with 21f in a dose-dependent manner”. For the same compound, the “phospho-T172 AMPKα, time course” value ([3]; HEK293T cells, 10 μM, 0-24 h) was “no effects”, the “phospho-T172 AMPKα” value [3, 11] was “no effects” and the “phospho-S473 Akt, time course” value ([4]; HEK293T cells, 10 μM, 0-24 h) was “no effects”. The “phospho-S473 Akt” value [4, 11] was “no effects”, the Kd [5] was 4.5 µM and the “concentration-dependent binding to LRS (SPR)” value ([5]; purified LRS) was “concentration-dependent binding to LRS”. The “LC3 I/LC3 II ratio” value [6] was “lowering LC3 I/LC3 II ratio”, the p62 level [6] was “stimulated the degradation of p62; also recorded: reducing p62 level” and the “cellular level of LC3 II” value ([6]; in the presence of Leu) was “increased the cellular level of LC3 II”. For the same compound, the “mCherry and GFP fluorescence (mCherry-GFP-LC3)” value [7] was “red fluorescence”, the “cellular division level by BrdU assay” value [8] was “suppressed cell proliferation even in the presence of Leu; also recorded: cellular division was inhibited as treatment time passed” and the “western blotting results, procedure of FIG. 15d” value [9] was “same as those from HEK293T cells”. The “western blotting results, procedure of FIG. 15d” value [10] was “same as those from HEK293T cells”.
In the case of C=CCN1C[C@H]2COC(=O)N2Cc2c(N(C)Cc3ccccc3)ncnc21 [Compound 22f], the “dose-dependent inhibition” value [1] is reported as “did not inhibit the LRS-RagD interaction in a dose-dependent manner” and the melting point is reported as 89 to 91 °C.
For CN(Cc1ccccc1)c1ncnc2c1CN(C(=O)OC(C)(C)C)[C@@H]1C=CCN2C1 [Compound 23f], the “dose-dependent inhibition” value [1] was “did not inhibit the LRS-RagD interaction in a dose-dependent manner”.
In the case of CO/C1=C\C(C)=C\[C@@H](C)[C@@H](O)[C@@H](C)C/C(C)=C/C=C/[C@H](OC)[C@@H]([C@@H](C)[C@@H](O)[C@H](C)[C@@]2(O)C[C@@H](O)[C@H](C)[C@@H](C(C)C)O2)OC1=O [bafilomycin, reference compound], the “LC3 I/LC3 II ratio” value [6] is reported as “increased ratio of LC3 I/LC3 II”, the p62 level [6] is reported as “accumulation of p62” and the “mCherry and GFP fluorescence (mCherry-GFP-LC3)” value [7] is reported as “yellow color”.
In the case of CO[C@H]1C[C@@H]2CC[C@@H](C)[C@@](O)(O2)C(=O)C(=O)N2CCCC[C@H]2C(=O)O[C@H]([C@H](C)C[C@@H]2CC[C@@H](O)[C@H](OC)C2)CC(=O)[C@H](C)/C=C(\C)[C@@H](O)[C@@H](OC)C(=O)[C@H](C)C[C@H](C)/C=C/C=C/C=C/1C [rapamycin, reference compound], the “duration of the effect on mTORC1 within cells” value ([2]; HEK293T cells, 500 nM, 0 to 24 hours) is reported as “at least 12 hours”.
